Laboratory results taken from patent publication US8163743B2, “4-carboxamide indazole derivatives useful as inhibitors of PI3-kinases” (GlaxoGroupLimited, priority 2008, dated 2012).
pIC50: −log10 of the molar value.

Columns and labels:
[1] = test system: IFN-γ or IL-5 production in human PBMC; assay: Inhibition of Interferon-Gamma (IFN-γ) or IL-5 production in human PBMC assay (MSD technology); type: cell-based; settings: human PBMC assay or a similar assay; CYTOSTIM stimulation, 20 hours; read-out: mean pIC50 (converted)
Description: Inhibition of Interferon-Gamma (IFN-γ) or IL-5 Production in Human PBMC (Peripheral Blood Mononuclear Cell) Assay (MSD Technology)
A 96-well plate (96 MicroWell™ Plates Nunclon™—High Flange Design, Fisher Scientific UK, Loughborough, UK) is prepared by initially adding to column 1 ca. 10 mM of test compound dissolved in DMSO. […] The compound is further diluted with DMSO into columns 2 to 9 by 8 successive 4-fold dilutions using the Biomek® 2000 Laboratory Automation Workstation (Beckman Coulter, Inc., Fullerton, Calif.). Column 10 is used as a DMSO negative control (High Signal, 0% response), whilst column 11, which contains 10 mM of the pan-PI3K inhibitor wortmannin, is used as a positive control (Low Signal, 100% response). About 1 μl of compound is transferred to the compound plate using the Biomek® FX.
PBMC cells (peripheral blood mononuclear cells) are prepared from heparinised human blood (using 1% v/v Heparin Sodium 10001 U/ml Endotoxin Free, Leo Laboratories Ltd., Dublin. Ireland, Cat No: PL0043/0149) from normal volunteers using the Accuspin™ System-Histopaque®-1077 essentially (Sigma-Aldrich Company Ltd., Gillingham Dorset, UK). About 20 ml of blood is overlaid onto 15 ml Histopaque® in Accuspin™ tubes. The tube is then centrifuged at about 800 g for ca. 20 minutes. The cells are collected from the interface, washed by centrifugation (ca. 1300 g, ca. 10 minutes) and resuspended in assay medium (Low endotoxin RPMI1640 medium, Cat No: 31870-025, Invitrogen Corporation Invitrogen Ltd, Paisley, UK) containing 10% foetal calf serum (Invitrogen Corporation, Cat No: CT2507), 2 mM L-glutamine (Invitrogen Corporation, Cat No: 25030024), 10 U/ml penicillin and 10 μg/ml streptomycin (Invitrogen Corporation, Cat No: 15140-122). Viable cells are counted by trypan blue staining and diluted to 6.6×10^5 viable cells/ml. About 150 μl of diluted cells are then added to the compound plate and incubated 37 degrees C. for 1 hour prior to addition of 50 μl of 0.125% (v/v) CYTOSTIM (Cat No: 130-092-173, Miltenyi Biotec Ltd., Bisley, Surrey, UK) diluted in assay medium. The assay plate is then incubated at 37° C., 5% CO2, for 20 hours. The supernatant is removed and the concentrations of IFN-γ and IL-5 are determined by electrochemiluminescence assay using the Meso Scale Discovery (MSD) technology (Meso Scale Discovery, Gaithersburg, Md., USA) as described below.
Supernants were assayed using MSD (Meso Scale Discovery) technology using either the ultra sensitive IFN-γ single plex or the IFN-γ/IL-5 multiplex 96-well plates (MA6000). For the IL-5/IFNg multiplex, Human Serum Cytokine Assay Diluent (25 μl) is added to the plates precoated with anti-cytokine antibody and then incubated for 24 hours at 4° C. to prevent non-specific binding. This blocking step is not required for the Ultrasensitive IFN-γ plates. About 25 μl of supernatant from the PBMC plate is then transferred from columns 1-11 to columns 1-11 of the MSD plate using the Biomek FX. About 25 μl of standard (IFN-γ Cat No. Calibrator C0AE, IL-5 Cat No. Calibrator C01AJ, Meso Scale Discovery) are added to column 12 of the MSD plate to generate a standard calibration curve (about 0 to 10000 pg/ml final). Plates are washed after 2 hours shaking with a Skanwasher 300 version B (Skatron Instruments AS. PO Box 8, N-3401 Lier, Norway). […] About 150 μl of Read Buffer T (2×) is added to the plates, which are then read on a MSD Sector 6000. […]

[2] = molecular target: CK2 protein kinase (Homo sapiens, UniProt P68400); settings: background, literature; cited from earlier work
CK2 protein kinase, sequence (P68400 whole entry): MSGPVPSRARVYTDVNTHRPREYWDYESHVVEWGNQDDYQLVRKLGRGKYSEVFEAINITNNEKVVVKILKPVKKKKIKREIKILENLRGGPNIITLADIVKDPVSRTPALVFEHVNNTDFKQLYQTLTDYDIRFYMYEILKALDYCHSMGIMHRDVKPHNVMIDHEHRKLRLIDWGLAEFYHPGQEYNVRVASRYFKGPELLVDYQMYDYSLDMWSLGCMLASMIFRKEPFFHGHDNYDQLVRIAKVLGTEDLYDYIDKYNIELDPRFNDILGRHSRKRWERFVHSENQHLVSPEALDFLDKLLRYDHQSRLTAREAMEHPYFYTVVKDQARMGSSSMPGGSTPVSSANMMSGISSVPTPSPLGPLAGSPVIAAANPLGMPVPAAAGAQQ

| Compound | IC50 [1] [µM] | also measured |
| --- | --- | --- |
| COc1ncc(-c2cc(NC(=O)c3csc(CN4C[C@@H](C)O[C@@H](C)C4)n3)c3cn[nH]c3c2)cc1NS(=O)(=O)CC(F)(F)F [2-{[(2R,6S)-2,6-dimethyl-4-morpholinyl]methyl}-N-[6-(6-(methyloxy)-5-{[(2,2,2-trifluoroethyl)sulfonyl]amino}-3-pyridinyl)-1H-indazol-4-yl]-1,3-thiazole-4-carboxamide] | ≤ 10 | – |
| COc1ncc(-c2cc(NC(=O)c3csc(CN4C[C@@H](C)O[C@@H](C)C4)n3)c3cn[nH]c3c2)cc1NS(C)(=O)=O [2-{[(2R,6S)-2,6-dimethyl-4-morpholinyl]methyl}-N-(6-{6-(methyloxy)-5-[(methylsulfonyl)amino]-3-pyridinyl}-1H-indazol-4-yl)-1,3-thiazole-4-carboxamide] | ≤ 10 | – |
| COc1ncc(-c2cc(NC(=O)c3csc(CN4C[C@@H](C)O[C@@H](C)C4)n3)c3cn[nH]c3c2)cc1NS(=O)(=O)c1ccc(F)cc1F [N-{6-[5-{[(2,4-difluorophenyl)sulfonyl]amino}-6-(methyloxy)-3-pyridinyl]-1H-indazol-4-yl}-2-{[(2R,6S)-2,6-dimethyl-4-morpholinyl]methyl}-1,3-thiazole-4-carboxamide] | ≤ 10 | – |
| O=c1cc(N2CCOCC2)oc2c(-c3ccccc3)cccc12 [LY294002] | – | pIC50 [2]: 5.00 to 5.30 |
| COc1ccccc1S(=O)(=O)Nc1cc(-c2cc(NC(=O)c3csc(CN4C[C@@H](C)O[C@@H](C)C4)n3)c3cn[nH]c3c2)cnc1OC [2-{[(2R,6S)-2,6-dimethyl-4-morpholinyl]methyl}-N-{6-[6-(methyloxy)-5-({[2-(methyloxy)phenyl]sulfonyl}amino)-3-pyridinyl]-1H-indazol-4-yl}-1,3-thiazole-4-carboxamide] | ≤ 10 | – |
| COc1ncc(-c2cc(NC(=O)c3csc(CN4C[C@@H](C)O[C@@H](C)C4)n3)c3cn[nH]c3c2)cc1NS(=O)(=O)c1ccc(F)cc1F [Example 94, N-{6-[5-{[(2,4-Difluorophenyl)sulfonyl]amino}-6-(methyloxy)-3-pyridinyl]-1H-indazol-4-yl}-2-{[(2R,6S)-2,6-dimethyl-4-morpholinyl]methyl}-1,3-thiazole-4-carboxamide] | – | melting point: 211 to 212 °C |
| COc1ncc(-c2cc(NC(=O)c3csc(CN4C[C@@H](C)O[C@@H](C)C4)n3)c3cnn(C)c3c2)cc1NS(C)(=O)=O [2-{[(2R,6S)-2,6-dimethyl-4-morpholinyl]methyl}-N-(1-methyl-6-{6-(methyloxy)-5-[(methylsulfonyl)amino]-3-pyridinyl}-1H-indazol-4-yl)-1,3-thiazole-4-carboxamide] | ≤ 10 | – |
